Broadly, the pIC50 is −log10 of the IC50, conventionally taken in molar units.

pIC50: −log10 of the molar value.

This assay deals with T1, Recombinant human KIF18A (1-467 His-tagged) (Homo sapiens, UniProt Q8NI77).
T1 construct: Recombinant human KIF18A (1-467 His-tagged) protein; His
T1 sequence (Q8NI77 1-467): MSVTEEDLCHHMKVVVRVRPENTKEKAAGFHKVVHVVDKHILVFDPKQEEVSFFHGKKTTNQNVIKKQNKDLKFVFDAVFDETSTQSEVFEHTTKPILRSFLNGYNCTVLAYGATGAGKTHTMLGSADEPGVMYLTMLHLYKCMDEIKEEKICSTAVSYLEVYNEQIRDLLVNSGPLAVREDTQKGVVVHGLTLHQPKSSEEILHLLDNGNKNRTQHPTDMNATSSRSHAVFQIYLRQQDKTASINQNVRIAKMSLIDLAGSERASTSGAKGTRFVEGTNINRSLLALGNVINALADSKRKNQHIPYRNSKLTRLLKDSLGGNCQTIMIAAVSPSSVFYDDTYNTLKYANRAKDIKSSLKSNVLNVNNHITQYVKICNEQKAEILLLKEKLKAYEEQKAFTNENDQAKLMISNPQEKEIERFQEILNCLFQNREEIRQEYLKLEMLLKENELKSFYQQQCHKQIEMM
T1 sequence (P02550 whole entry partner): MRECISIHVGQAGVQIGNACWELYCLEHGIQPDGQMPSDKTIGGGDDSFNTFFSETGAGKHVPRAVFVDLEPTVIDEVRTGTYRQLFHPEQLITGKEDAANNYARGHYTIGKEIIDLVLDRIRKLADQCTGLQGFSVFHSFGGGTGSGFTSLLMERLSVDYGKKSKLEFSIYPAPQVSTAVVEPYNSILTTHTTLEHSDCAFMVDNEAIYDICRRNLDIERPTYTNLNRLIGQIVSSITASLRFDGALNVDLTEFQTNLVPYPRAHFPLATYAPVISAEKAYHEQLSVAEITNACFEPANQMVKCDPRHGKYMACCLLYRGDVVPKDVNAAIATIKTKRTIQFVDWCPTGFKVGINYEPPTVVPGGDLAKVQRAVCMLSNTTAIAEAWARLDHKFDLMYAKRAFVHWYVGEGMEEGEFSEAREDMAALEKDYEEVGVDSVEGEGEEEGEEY
T1 sequence (P02554 whole entry partner): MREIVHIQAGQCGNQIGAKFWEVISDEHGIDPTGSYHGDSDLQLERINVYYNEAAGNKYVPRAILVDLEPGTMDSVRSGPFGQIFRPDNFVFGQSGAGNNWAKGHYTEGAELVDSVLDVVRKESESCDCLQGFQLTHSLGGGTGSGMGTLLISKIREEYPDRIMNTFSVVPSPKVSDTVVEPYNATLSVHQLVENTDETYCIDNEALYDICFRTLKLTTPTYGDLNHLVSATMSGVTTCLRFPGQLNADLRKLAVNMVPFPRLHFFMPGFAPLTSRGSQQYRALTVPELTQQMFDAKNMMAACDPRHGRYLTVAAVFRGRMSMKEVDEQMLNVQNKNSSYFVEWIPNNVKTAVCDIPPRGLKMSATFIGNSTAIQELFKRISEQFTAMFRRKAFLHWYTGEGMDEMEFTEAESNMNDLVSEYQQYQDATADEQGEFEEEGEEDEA
Kind of assay: KIF18A Enzyme Assay: microtubule-stimulated ATPase activity (ADP-Glo). Type of assay: biochemical. Conditions: 30 nM KIF18A, 30 μg/mL pig microtubules, ATP 75 μM (Km), ADP-Glo luminescence. Here is the method: KIF18A Enzyme Assay: Microtubule-stimulated ATPase activity assay is used to measure KIF18A enzyme activity after treatment with compound. Compounds were 2-fold serially diluted in DMSO (Sigma Inc) over 22-point concentration range. […] The assay measures ADP formed from the ATPase reaction. […] Read luminescence using EnVision microplate reader with ultra-luminescence module (Perkin Elmer Inc). Concentration-response curve-fitting and IC50 determination was performed using Genedata Screener Software (Standard 15.0.1, Genedata Inc) with a four-parameter logistic regression fit model.
A general note: ADP-Glo first removes unused ATP, then detects ADP through luciferase.
`C[C@H](CO)S(=O)(=O)Nc1ccc(C(=O)Nc2cccc(OCCC(F)(F)F)n2)c(N2CCC3(CC2)CC3)c1` (single isomer, unassigned) [Example 8-1]: the pIC50 is 7.80.

Take `C[C@@H](CO)S(=O)(=O)Nc1ccc(C(=O)Nc2cccc(OCCC(F)(F)F)n2)c(N2CCC3(CC2)CC3)c1` (single isomer, unassigned) [Example 8-2]: the pIC50 was 7.85.

As for `C[C@H](CO)S(=O)(=O)Nc1ccc(C(=O)Nc2cccc(N3CC(F)C3)n2)c(N2CCC3(CC2)CC3)c1` (single isomer, unassigned) [Example 9-1], the negative-log IC50 (pIC50) was 7.48.

Turning to `C[C@@H](CO)S(=O)(=O)Nc1ccc(C(=O)Nc2cccc(N3CC(F)C3)n2)c(N2CCC3(CC2)CC3)c1` (single isomer, unassigned) [Example 9-2], the pIC50 is 7.33.

In the case of `C[C@H](CO)S(=O)(=O)Nc1ccc(C(=O)Nc2cccc(N3CC(F)(F)C3)n2)c(N2CCC3(CC2)CC3)c1` (single isomer, unassigned) [Example 9-3], the pIC50 is 7.60.

For the compound `C[C@@H](CO)S(=O)(=O)Nc1ccc(C(=O)Nc2cccc(N3CC(F)(F)C3)n2)c(N2CCC3(CC2)CC3)c1` (single isomer, unassigned) [Example 9-4], the negative logarithm of the IC50 (pIC50) is 7.17.

As to `Cc1cc(NC(=O)c2ccc(NS(=O)(=O)[C@H](C)CO)cc2N2CCC3(CC2)CC3)nc(N2CC(F)(F)C2)c1` (single isomer, unassigned) [Example 9-5], the negative-log IC50 (pIC50) was 7.77.

On to `Cc1cc(NC(=O)c2ccc(NS(=O)(=O)[C@@H](C)CO)cc2N2CCC3(CC2)CC3)nc(N2CC(F)(F)C2)c1` (single isomer, unassigned) [Example 9-6], for which the negative logarithm of the IC50 (pIC50) was 7.24.

`Cc1cc(NC(=O)c2ccc(NS(=O)(=O)[C@@H](C)CO)cc2N2CCC3(CC2)CC3)nc(N2CCC(F)(F)CC2)c1` (single isomer, unassigned) [Example 9-7]: the pIC50 is 7.57.

In the case of `Cc1cc(NC(=O)c2ccc(NS(=O)(=O)[C@H](C)CO)cc2N2CCC3(CC2)CC3)nc(N2CCC(F)(F)CC2)c1` (single isomer, unassigned) [Example 9-8], the pIC50 was 7.42.

On to `C[C@@H](CO)S(=O)(=O)Nc1ccc(C(=O)Nc2cccc(N3CCC(F)(F)CC3)n2)c(N2CCC3(CC2)CC3)c1` (single isomer, unassigned) [Example 9-9], for which the pIC50 was 7.39.

In the case of `C[C@H](CO)S(=O)(=O)Nc1ccc(C(=O)Nc2cccc(N3CCC(F)(F)CC3)n2)c(N2CCC3(CC2)CC3)c1` (single isomer, unassigned) [Example 9-10], the pIC50 is 7.43.

Regarding `Cc1cc(NC(=O)c2ccc(NS(=O)(=O)[C@H](C)CO)cc2N2CCC3(CC2)CC3)nc(N2CCO[C@H](C)C2)c1` (single isomer, unassigned) [Example 9-11], the pIC50 was 7.42.

As for `Cc1cc(NC(=O)c2ccc(NS(=O)(=O)[C@@H](C)CO)cc2N2CCC3(CC2)CC3)nc(N2CCO[C@H](C)C2)c1` (single isomer, unassigned) [Example 9-12], the negative logarithm of the IC50 (pIC50) is 7.41.

In the case of `Cc1cc(NC(=O)c2ccc(NS(=O)(=O)[C@H](C)CO)cc2N2CCC3(CC2)CC3)nc(N2CCOCC2)c1` (single isomer, unassigned) [Example 9-13], the pIC50 is 7.74.

For `Cc1cc(NC(=O)c2ccc(NS(=O)(=O)[C@@H](C)CO)cc2N2CCC3(CC2)CC3)nc(N2CCOCC2)c1` (single isomer, unassigned) [Example 9-14], the pIC50 is 7.74.

In the case of `C[C@@H]1CN(c2cccc(NC(=O)c3ccc(NS(=O)(=O)[C@H](C)CO)cc3N3CCC4(CC3)CC4)n2)CCO1` (single isomer, unassigned) [Example 9-15], the pIC50 was 7.43.

Consider `C[C@@H]1CN(c2cccc(NC(=O)c3ccc(NS(=O)(=O)[C@@H](C)CO)cc3N3CCC4(CC3)CC4)n2)CCO1` (single isomer, unassigned) [Example 9-16], for which the pIC50 is 7.32.

With `C[C@H](CO)S(=O)(=O)Nc1ccc(C(=O)Nc2cccc(N3CCO[C@@H](C)C3)n2)c(N2CCC3(CC2)CC3)c1` (single isomer, unassigned) [Example 9-17], the pIC50 is 7.62.

For `C[C@H]1CN(c2cccc(NC(=O)c3ccc(NS(=O)(=O)[C@@H](C)CO)cc3N3CCC4(CC3)CC4)n2)CCO1` (single isomer, unassigned) [Example 9-18], the pIC50 is 7.44.

For the compound `C[C@@H]1CN(c2cccc(NC(=O)c3ccc(S(=N)(=O)C4CC4)cc3N3CCC4(CC3)CC4)n2)CCO1` (single isomer, unassigned) [Example 12-1], the pIC50 is 7.07.

As to `C[C@@H]1CN(c2cccc(NC(=O)c3ccc(S(=N)(=O)C4CC4)cc3N3CCC4(CC3)CC4)n2)CCO1` (single isomer, unassigned) [Example 12-2], the pIC50 was 7.37.

Take `C[C@@H]1CN(c2cccc(NC(=O)c3ccc([S@](=N)(=O)C(C)(C)C)cc3N3CCC4(CC3)CC4)n2)CCO1` (single isomer, unassigned) [Example 13-1]: the negative-log IC50 (pIC50) was 6.70.

For the compound `C[C@@H]1CN(c2cccc(NC(=O)c3ccc([S@@](=N)(=O)C(C)(C)C)cc3N3CCC4(CC3)CC4)n2)CCO1` (single isomer, unassigned) [Example 13-2], the pIC50 was 6.74.

`C[C@@H]1CN(c2cccc(NC(=O)c3ccc(S(C)(=N)=O)cc3N3CCC4(CC3)CC4)n2)CCO1` (single isomer, unassigned) [Example 13-3]: the pIC50 is 6.38.

For the compound `N=S(=O)(c1ccc(C(=O)Nc2cccc(OCCC(F)(F)F)n2)c(N2CCC3(CC2)CC3)c1)C1CC1` (single isomer, unassigned) [Example 27-1, 2-(6-Azaspiro[2.5]octan-6-yl)-4-(S-cyclopropylsulfonimidoyl)-N-(6-(3,3,3-trifluoropropoxy)-2-pyridinyl)benzamide], the negative logarithm of the IC50 (pIC50) is 7.66.

Regarding `N=[S@@](=O)(c1ccc(C(=O)Nc2cccc(OCCC(F)(F)F)n2)c(N2CCC3(CC2)CC3)c1)C1CC1` (single isomer, unassigned) [Example 27-2, 2-(6-Azaspiro[2.5]octan-6-yl)-4-(R-cyclopropylsulfonimidoyl)-N-(6-(3,3,3-trifluoropropoxy)-2-pyridinyl)benzamide], the pIC50 is 7.80.

In the case of `Cc1cc(NC(=O)c2ccc(S(=N)(=O)C3CC3)cc2N2CCC3(CC2)CC3)nc(N2CC(F)(F)C2)c1` (single isomer, unassigned) [Example 28-1, 2-(6-Azaspiro[2.5]octan-6-yl)-4-(S-cyclopropylsulfonimidoyl)-N-(6-(3,3-difluoro-1-azetidinyl)-4-methyl-2-pyridinyl)benzamide], the pIC50 was 7.15.

As to `Cc1cc(NC(=O)c2ccc(S(=N)(=O)C3CC3)cc2N2CCC3(CC2)CC3)nc(N2CCO[C@H](C)C2)c1` (single isomer, unassigned) [Example 29-1], the pIC50 was 6.78.

For the compound `Cc1cc(NC(=O)c2ccc([S@](=N)(=O)C3CC3)cc2N2CCC3(CC2)CC3)nc(N2CCC(F)(F)CC2)c1` (single isomer, unassigned) [Example 30-1, 2-(6-Azaspiro[2.5]octan-6-yl)-4-(S-cyclopropylsulfonimidoyl)-N-(6-(4,4-difluoro-1-piperidinyl)-4-methyl-2-pyridinyl)benzamide], the pIC50 is 7.09.

Turning to `C[C@@H]1CN(c2cccc(NC(=O)c3ccc(S(C)(=N)=O)cc3N3CCC4(CC3)CC4)n2)CCO1` (stereo in doubt) [Example 13-4, 2-(6-Azaspiro[2.5]octan-6-yl)-N-(6-((2R)-2-methyl-4-morpholinyl)-2-pyridinyl)-4-(R-methylsulfonimidoyl)benzamide], the pIC50 is 6.81.

Turning to `Cc1cc(NC(=O)c2ccc(S(=N)(=O)C3CC3)cc2N2CCC3(CC2)CC3)nc(N2CC(F)(F)C2)c1` (stereo in doubt) [Example 28-2, 2-(6-Azaspiro[2.5]octan-6-yl)-4-(R-cyclopropylsulfonimidoyl)-N-(6-(3,3-difluoro-1-azetidinyl)-4-methyl-2-pyridinyl)benzamide], the pIC50 was 7.43.

As for `Cc1cc(NC(=O)c2ccc(S(=N)(=O)C3CC3)cc2N2CCC3(CC2)CC3)nc(N2CCO[C@H](C)C2)c1` (stereo in doubt) [Example 29-2, 2-(6-Azaspiro[2.5]octan-6-yl)-4-(R-cyclopropylsulfonimidoyl)-N-(4-methyl-6-((2R)-2-methyl-4-morpholinyl)-2-pyridinyl)benzamide], the negative-log IC50 (pIC50) was 7.23.

As to `Cc1cc(NC(=O)c2ccc(S(=N)(=O)C3CC3)cc2N2CCC3(CC2)CC3)nc(N2CCC(F)(F)CC2)c1` (stereo in doubt) [Example 30-2, 2-(6-Azaspiro[2.5]octan-6-yl)-4-(R-cyclopropylsulfonimidoyl)-N-(6-(4,4-difluoro-1-piperidinyl)-4-methyl-2-pyridinyl)benzamide], the pIC50 was 7.38.

Regarding `O=C(Nc1cccc(OCCC(F)(F)F)n1)c1ccc(S(=O)(=O)NCCO)cc1N1CCC2(CC1)CC2` [Example 1, 4-(N-(2-Hydroxyethyl)sulfamoyl)-2-(6-azaspiro[2.5]octan-6-yl)-N-(6-(3,3,3-trifluoropropoxy)pyridin-2-yl)benzamide], the pIC50 was 7.92.

In the case of `C[C@@H]1CN(c2cccc(NC(=O)c3ccc(S(=O)(=O)NCCO)cc3N3CCC4(CC3)CC4)n2)CCO1` [Example 1-1, (R)-4-(N-(2-Hydroxyethyl)sulfamoyl)-N-(6-(2-methylmorpholino)pyridin-2-yl)-2-(6-azaspiro[2.5]octan-6-yl)benzamide], the negative logarithm of the IC50 (pIC50) is 7.80.

For `Cc1cc(NC(=O)c2ccc(S(=O)(=O)NCCO)cc2N2CCC3(CC2)CC3)nc(N2CCC(F)(F)CC2)c1` [Example 1-2, N-(6-(4,4-Difluoropiperidin-1-yl)-4-methylpyridin-2-yl)-4-(N-(2-hydroxyethyl)sulfamoyl)-2-(6-azaspiro[2.5]octan-6-yl)benzamide], the pIC50 was 7.49.

The values are drawn from patent publication US12459932B2, “KIF18A inhibitors” (AMGEN INC., priority 2018, dated 2025).
